From patent US4724236A, “5,11-dihydro-6H-pyrido(2,3-B)(1,4)benzodiazepin-6-ones substituted in the 11-position, processes for preparing them and pharmaceutical compositions containing these compounds” (Karl Thomae GmbH, priority 1985, dated 1988)

Columns and labels:
[1] = target: T1, muscarinic receptors (heart) (Rattus norvegicus, UniProt P10980); test: Binding to muscarinic receptors, heart (3H-NMS displacement); settings: rat whole heart homogenate, pH 7.4, 30° C., 45 minutes, read-out: Receptor binding test IC50, Heart
T1 construct: The whole heart was cut up with scissors; All the organs were then homogenised; from tissue; host or cells: rat whole heart homogenate (male Sprague-Dawley)
T1 sequence (P10980 1-466): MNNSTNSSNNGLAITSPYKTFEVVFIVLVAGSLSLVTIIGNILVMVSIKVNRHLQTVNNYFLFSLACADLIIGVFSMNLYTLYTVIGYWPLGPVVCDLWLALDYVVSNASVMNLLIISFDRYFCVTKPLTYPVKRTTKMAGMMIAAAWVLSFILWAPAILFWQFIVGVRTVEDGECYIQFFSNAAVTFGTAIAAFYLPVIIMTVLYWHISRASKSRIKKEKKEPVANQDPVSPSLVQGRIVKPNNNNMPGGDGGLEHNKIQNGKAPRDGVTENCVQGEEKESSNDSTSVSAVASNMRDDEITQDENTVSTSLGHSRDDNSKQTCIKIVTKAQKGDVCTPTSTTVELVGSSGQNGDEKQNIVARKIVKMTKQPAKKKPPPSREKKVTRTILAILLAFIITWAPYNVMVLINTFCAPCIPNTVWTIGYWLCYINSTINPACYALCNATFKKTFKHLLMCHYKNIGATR
Method: (§1) B. Studies of binding to muscarinic receptors: determining the IC50 value
(§2) Male Sprague-Dawley rats weighing from 180-220 g served as organ donors. After the heart, stomach and cerebral cortex had been removed, all other procedures were carried out in ice-cold Hepes-HCl buffer (pH 7.4; 100 m molar NaCl, 10 m molar MgCl2). The whole heart was cut up with scissors. All the organs were then homogenised in a Potter apparatus.
(§3) For the binding test the homogenised organs were diluted as follows:
(§4) The homogenised organs were incubated at a specific concentration of the radioactive ligand and a series of concentrations of the non-radioactive test substances in an Eppendorf centrifugal test tube at 30° C. The period of incubation was 45 minutes. 0.3 micro-mol of ^3 H-N-methylscopolamine (^3 H-NMS) was used as the radioactive ligand. After incubation had been ended by centrifuging at 14000 g, the radioactivity in the pellet was determined. It represents the sum of specific and non-specific binding of ^3 H-NMS. The proportion of non-specific binding was defined as the radioactivity which was bound in the presence of 1 micro-mol of quinuclidinyl benzylate. Fourfold measurements were taken in each case. The IC50 values of the non-labelled test substances were determined graphically. […]

[2] = target: muscarinic receptors (cortex); test: Binding to muscarinic receptors, cerebral cortex (3H-NMS displacement); settings: rat cerebral cortex homogenate, pH 7.4, 30° C., 45 minutes, read-out: Receptor binding test IC50, Cortex
Method: as §1, §2, §3, §4

[3] = test system: oxotremorin-induced saliva secretion; test: Inhibition of oxotremorin-stimulated salivation in the rat; assay type: in vivo; settings: iv, 15 minutes before oxotremorin 0.083 mg/kg i.v.
Method: 2. inhibition of salivation stimulated by oxotremorin in the rat and
2. Inhibition of salivation in the rat
10 female albino rats (strain Crl:COBS-CD (SD) BR) having a body weight from 120 to 150 g, were used for each treatment group, and 24 hours before the start of the test the rats were deprived of food but given free access to drinking water.
In order to determine the muscarinic effect of oxotremorin on each of the symptoms being investigated in preliminary tests, a dosage-activity curve was drawn up with at least 3 dosages for each symptom.
When testing antimuscarinic substances, the oxotremorin dose used was that which had triggered the symptom to be influenced in 90 to 100% of the animals in the preliminary test 5.
Secretion of saliva: 0.083 mg/kg i.v.
Each antimuscarinic substance was administered intraveneously in uniformly graduated dosages 15 minutes before the administration of oxotremorin. Control groups were given the solvent and suspension agent in corresponding amounts instead of the test substance.
The results were expressed as the percentage inhibition of the oxotremorin effect (percentage of animals without the symptom in question). ED50 values were determined by the method of LITCHFIELD and WILCOXON (J. Pharmacol. Exp. Ther. 96, 99, 1949).

pupil size = test: Mydriatic effect on the rat (increase in pupil size); assay type: in vivo; settings: i.v.; printed as ED50 in Table I; method defines ED200 (dose doubling pupil diameter)
Method: 3. Mydriatic activity in the rat.
3. Mydriatic effect on the rat
The mydriasis was determined by measuring the increase in pupil size after intravenous injection of the test substance. The pupil size was measured with a microscope. The measurements were taken before and at various times (15, 45 and 75 minutes) after the injection of different doses of the substance. The results were expressed as the ED200. That is the dose which doubled the diameter of the pupil, compared with the basal value. The maximum effect was usually observed between 15 and 45 minutes after intravenous administration.

[4] = test system: heart rate, conscious dog; test: Heart rate-increasing activity (tachycardia) in the conscious dog; assay type: in vivo; settings: Canis lupus familiaris, iv, dose for increase of 50 beats/minute, 3 to 5 dogs, read-out: Tachycardia (dog) ED50
Method: 1. tachycardiac effect in conscious dogs,
1. Heart rate-increasing activity in the conscious dog
The substances were injected intravenously and the heart rate was recorded using a tachygraph. After a control interval, increasing doses of the compound were administered in order to increase the heart rate. The next dose was injected when the effect of the preceding dose was no longer visible. The dosage of a substance which brought about an increase of 50 beats/minute (ED50) was determined graphically. Each substance was tested on 3 to 5 dogs.

[5] = test system: platelet clots (mesenterial vein); test: Effect on platelet clots in rats (electrically induced mesenterial clots, Poliwoda et al.); assay type: in vivo, rat
Method: Effect on platelet clots in the rats
Essentially the method described by Poliwoda, Lilli, Hagemann, Schyma, in Z. ges. exp. Med. 145, 252, (1968) was used.
Male SPF rats (Chbb:THOM) weighing from 70 to 90 g, given free access to food (Altromin®), and water up until the start of the test, were anaesthetised with Nembutal administered by intraperitoneal route (50 to 60 mg/kg of pentobarbital-Na). In order to avoid hypothermia they were kept on a heated test bench (37° C.).
After the abdomen had been opened up with a transverse cut the loop of small intestine was taken out and fixed and a mesenterial vein with a diameter of 300 microns was placed under a binocular operation microscope with ×40 magnification. A monopolar V4A steel electrode embedded in glass, with a diameter of 100 microns at the tip, was applied to the vein as stimulating cathode. The anode was applied to the same vessel opposite the cathode. Stimulation was effected with 150 volts of direct current for a period of 100 microsec. After stimulation, the observation area was continuously rinsed with warm (37° C.) physiological saline solution.
The formation and growth of the clot was monitored under the microscope over a period of 20 minutes. Throughout the entire observation period, the percentage narrowing of the diameter of the vessel by the clot was determined and noted initially at 10 second intervals and later every minute. The results were recorded in terms of time in a coordinate system. […]
The area under the curve of the animals treated with the test substance was compared with that of the control animals. The reduction of the size of the clot under the influence of the substance was determined as the percentage reduction in the average value of the area under the curve of the substance-treated animals over the entire observation period compared with the average value of the controls.
The significance of the reduction was calculated by Student's t test for independent random samples (CAVALLI-SFORZA: Biometrie, G. Fischer-Verlag, Stuttgart 1969, page 72).

O=C1Nc2cccnc2N(C(=O)CCC#CCN2CCCCC2)c2ccccc21 [Substance A, 5,11-dihydro-11-[1-oxo-6-(1-piperidinyl)-4-hexynyl]-6H-pyrido[2,3-b][1,4]benzodiazepin-6-one]
IC50 [1]: 120 nM | IC50 [2]: 1200 nM | ED50 [3]: 2.05 mg/kg | Mydriasis (rat) ED200 (dose doubling pupil diameter) (pupil size): ~ 3000 micro g/kg | ED (50 beats/min increase) [4]: 0.044 mg/kg

O=C1Nc2cccnc2N(C(=O)CCC#CCN2CCCCCC2)c2ccccc21 [Substance B, 5,11-dihydro-11-[1-oxo-6-(hexahydro-1H-azepin-1-yl)-4-hexynyl]-6H-pyrido[2,3-b][1,4]benzodiazepin-6-one]
IC50 [1]: 30 nM | IC50 [2]: 220 nM | ED50 [3]: 1.14 mg/kg | Mydriasis (rat) ED200 (dose doubling pupil diameter) (pupil size): 2189 micro g/kg | ED (50 beats/min increase) [4]: 0.028 mg/kg

CC(CC#CCN1CCN(C)CC1)C(=O)N1c2ccccc2C(=O)Nc2cccnc21.Cl.Cl (stereo not shown) [Substance C in form of dihydrochloride, 5,11-Dihydro-11-[1-oxo-2-methyl-6-(4-methyl-1-piperazinyl)-4-hexynyl]-6H-pyrido[2,3-b][1,4]benzodiazepin-6-one dihydrochloride]
"area under curve" units of area, average ± SD ([5]; 1 mg/kg i.v., n = 5, 20 minutes, significant reduction, t test, p < 0.02, control 1736.0 ± 124.2): 1230.0 ± 188.0 units of area | percentage reduction compared with controls (size of clot) ([5]; 1 mg/kg i.v., n = 5, from area under curve versus controls, p < 0.02): 29.2% | antithrombotic activity (in words) ([5]; rats): marked antithrombotic activity
